Assay results taken from US12553889B2, “Small molecules targeting the intrinsically disordered structural ensemble of α-synuclein protect against diverse α-synuclein mediated dysfunctions” (The Regents of the University of California, priority 2019, dated 2026).
“Also recorded” adds a separate entry of the source.

How the values were obtained:
[1] = tested on: H4 neuroglioma cells over-expressing αSyn; test: Phagocytosis assay; assay type: cell-based, human; settings: for reversal of αSyn mediated inhibition of phagocytosis: 100 nM; for phagocytosis restored, percent of that in cells with endogenous αSyn levels (control): phagocytosis inhibited by αSyn overexpression
Description: A human neuroglioma H4 cell-derived cell line stably over-expressing αSyn from a tetracycline inducible promoter was generated using the tet inducible TRex system (Invitrogen division of Life Technologies) and grown in serum-free X-VIVO media (Lonza Group, Basel, Switzerland). Cells were seeded in 96-well plates at densities yielding 75 to 90% confluency during the phagocytosis assay. The next day, compound was added along with 5 μg/ml tetracycline to induce αSyn overexpression. Cells were cultured overnight and the next day were fed […] red fluorescent beads (Invitrogen, Carlsbad, CA) for 90 minutes at a cell-to-bead ratio of 1:10. Plates were gently washed with 100 μl/well media twice, fixed and stained with HEMA3 (Thermo Fisher, Waltham, MA). Plates were dried overnight and read on an ArrayScan (Thermo Fisher, Waltham, MA). As the HEMA3 stain absorbs light, the internalized beads are less fluorescent than the outside beads. Tet/non-tet and 484228 samples were run on each plate.

αSyn [2] = target: T1, αSyn (Homo sapiens, UniProt P37840); design: made in house; host or cells: E. coli; settings: prior study (Toth et al 2014); cited from earlier work
αSyn [3] = target: T1, αSyn; design: made in house; host or cells: E. coli; settings: prior study (Toth et al 2014); cited from earlier work; remark: listed apart in the source
[4] = tested on: H4 neuroglioma cells over-expressing αSyn; settings: earlier report; cited from earlier work
αSyn [5] = target: T1, αSyn; test: αSyn fibrillization assay (Thioflavin T fluorescence); assay type: biochemical; design: made in house; host or cells: E. coli BL21(DE3), pET-21d; settings: compound at 300 μM, 70 μM αSyn, vs 0.5% DMSO control
Description: Fibrillization assays. Prior to each aggregation assay, purified αSyn at 5 mg/mL was treated with 6M guanidine and dialyzed 36 hours in a 3500 MW cutoff Slide-A-lyzer with three changes of 20 mM sodium phosphate and 100 mM NaCl pH 7.4 buffer. αSyn was centrifuged at 130,000 g for 40 minutes in a Beckman Ultracentrifuge to remove seeding species and supernatant used for assays. For initial testing, 60 mM compound in DMSO was diluted to 300 μM in 0.5% DMSO and controls contained equivalent DMSO concentrations. Assay samples contained 20 μM Thioflavin T, filtered through a 0.45 μm Acrodisc filter prior to each assay, 70 μM αSyn in 20 mM sodium phosphate and 100 mM NaCl pH 7.4. One teflon bead, (0.125″ PTFE, Grade 2 polished) was placed in each well of a 96 well black with clear bottom assay plate (Corning) in a total volume of 500 μL. The plate was sealed with Mylar and parafilm, placed at 37° C. in a Tecan F200Pro Plate Reader and shaken at an amplitude of 6 mm for 120 hours continuously except for a brief time during reading of the plate. Thioflavin T fluorescence was detected by excitation at 440 nm and reading emissions at 485 nm each 60 minutes throughout the assay. To generate αSyn seeds for the seeding assays, αSyn at 10 mg/mL was incubated with stirring at 43° C. for 24 hours followed by exhaustive sonication. 1% (by mass) of seeds were added to the fibrillization assay. Samples were plated in quadruplicate, and the replicates averaged for each experiment for plotted data. Data were analyzed in Excel using XL-fit sigmoidal model #600 and when normalized, comparing fluorescence values at 50 hours for compounds as a percentage of DMSO control.
α-Syn for the Fibrillization assay. Wildtype human αSyn was produced from a pET-21d plasmid (Millipore, Burlington, MA) in E. coli BL21(DE3) cells induced by addition of 1 mM […] and incubated at 16° C. overnight. Cells were harvested by centrifugation at 4,000×g for 10 minutes and stored at −80° C. Frozen cells expressing αSyn protein were resuspended in 50 mM Tris, pH 7.5, 1 mM TCEP, 1 mM EDTA, and 1 mM L-Methionine and lysed using a microfluidizer. Lysate was centrifuged at 7000×g for 0.5 hours at 21° C. The supernatant was boiled in a water bath for 15 minutes, cooled on ice and centrifuged at 45,000 g for 30 min. The supernatant was filtered through a 0.2 μm Corning filter and subjected to ion exchange chromatography using a Capto ImpRes Q (GE Healthcare, Upssala, Sweden) anion exchange (IEX) column at ambient temperature. The column was eluted with a gradient of 100 column volumes from 0 to 1M NaCl using an AKTA Explorer 100 Liquid Chromatography System (GE Healthcare, Uppsala, Sweden). Pure αSyn fractions were desalted to 50 mM KPO4, pH 7.5 and 50 mM NaCl using PD-10 columns (GE Healthcare, Chicago, IL) and concentrated to 5 mg/mL or 10 mg/ml (3K MWCO, Amicon Ultra, Millipore, Burlington, MA).
Statistical Analysis of compound activity in Fibrillization assays. For the analyses of compound activity in the αSyn fibrillization assay, the relative fluorescence unit (RFU) data obtained from compounds were compared to those of DMSO, to identify those that are statistically different from DMSO at various time points. Each experiment contained 4 replicates of each compound and of DMSO control. […] A repeated measures analysis of variance was performed on logarithmic transformed data using a linear mixed effects model which included Compound, Time, Replicate (Compound) and Compound*Time. The covariance structure across time that minimized the corrected Akaike Information Criterion (AICC) was used and the Kenward and Roger method was used to determine the appropriate degrees of freedom. Each compound mean was compared to the DMSO mean using Bonferroni multiplicity adjusted t-tests. Statistical analyses were conducted using the MIXED procedure in SAS 9.1 (SAS Institute Inc. Cary, NC, USA). Statistical significance refers to p-value<0.05.

Row | Structure (SMILES) | reversal of αSyn mediated inhibition of phagocytosis [1] | phagocytosis restored, percent of that in cells with endogenous αSyn levels (control) [1] | impact on αSyn fibrillization (thioflavin fluorescence signal) (αSyn [5]) | other results
1 | NC(=O)[C@@H](NC(=O)c1csc(-c2ccccc2)n1)C1CCCCC1 [Compound 573419, (S)-N-(2-amino-1-cyclohexyl-2-oxoethyl)-2-phenylthiazole-4-carboxamide] | complete reversal | – | – | –
2 | NC(=O)[C@H](Cc1c[nH]cn1)NC(=O)c1ccccn1 [Compound 573418, (S)-N-(1-amino-3-(1H-imidazol-4-yl)-1-oxopropan-2-yl)picolinamide] | complete reversal | – | – | –
3 | O=S(=O)(Nc1ccc(F)cc1)c1ccccc1 [Compound 484228, N-(4-fluorophenyl)benzenesulfonamide] | – | ≤ 80% | – | reversal of αSyn over-expression mediated neurodegeneration (αSyn [2]): protective activity; impact on aggregation of the recombinant protein (αSyn [3]): without impact on aggregation; restoration of phagocytosis in the face of αSyn overexpression [4]: restored normal phagocytosis
4 | CNC(=O)CC(N)c1ccc(-c2ccccc2)cc1 (stereo not drawn) [Compound 581674, 3-([1,1′-biphenyl]-4-yl)-3-amino-N-methylpropanamide] | – | 100% | inhibit fibrillization; also recorded: blocks αSyn fibrillization | –
5 | CNC(=O)C[C@H](N)Cc1cccc2ccccc12 [Compound 573416, (R)-3-amino-N-methyl-4-(naphthalen-1-yl)butanamide] | – | – | no impact on αSyn fibrillization | –
